Measurements taken from US6660742B2, “Compositions and methods of the use thereof achiral analogues of CC-1065 and the duocarmycins” (priority 2000, dated 2003).
Several values for one entry are separate records, joined by “and”; a condition that tells them apart may be missing. Equal values may be shown once. Read-outs that look alike come from different tables or passages of the source.

Experiments:
LOX IMVI = assay: NCI screen, LOX IMVI (Melanoma)
Method: (§1) The compounds of this invention were also tested against the panel of 60 human cancer cell lines at the National Cancer Institute, Bethesda, Md. (44). The cytrotoxicity studies were conducted using a 48 hour exposure, and measuring the optical density of sulforhodamide B-derived color.

BT-549 = assay: NCI screen, BT-549 (Breast Cancer)
Method: as §1

SF-268 = assay: NCI screen, SF-268 (CNS Cancer)
Method: as §1

U251 = assay: NCI screen, U251 (CNS Cancer)
Method: (§2) The compounds of this invention were also tested against the panel of 60 human cancer cell lines at the National Cancer Institute, Bethesda, Md. […] The cytrotoxicity studies were conducted using a 48 hour exposure, and measuring the optical density of sulforhodamide B-derived color.

SNB-75 = assay: NCI screen, SNB-75 (CNS Cancer)
Method: as §2

OVCAR-8 = assay: NCI screen, OVCAR-8 (Ovarian Cancer)
Method: as §1

NCI-H522 = assay: NCI screen, NCI-H522 (Non-Small Cell Lung Cancer)
Method: as §2

MOLT-4 = assay: NCI screen, MOLT-4 (Leukemia)
Method: as §2

IGROV1 = assay: NCI screen, IGROV1 (Ovarian Cancer); type: cell-based, human
Method: as §2

HOP-62 = assay: NCI screen, HOP-62 (Non-Small Cell Lung Cancer)
Method: as §2

TK-10 = assay: NCI screen, TK-10 (Renal Cancer)
Method: as §2

HCT-116 = assay: NCI screen, HCT-116 (Colon Cancer)
Method: as §2

SR = assay: NCI screen, SR (Leukemia)
Method: as §2

MCF7 = assay: NCI screen, MCF7 (Breast Cancer)
Method: as §2

NCI-H226 = assay: NCI screen, NCI-H226 (Non-Small Cell Lung Cancer); type: cell-based, human
Method: as §2

UACC-257 = assay: NCI screen, UACC-257 (Melanoma)
Method: as §2

SW-620 = assay: NCI screen, SW-620 (Colon Cancer); type: cell-based, human
Method: as §2

MCF7/ADR-RES = assay: NCI screen, MCF7/ADR-RES (Breast Cancer); type: cell-based, human; settings: MCF7/ADR-RES
Method: as §2

SF-295 = assay: NCI screen, SF-295 (CNS Cancer)
Method: as §2

SF-539 = assay: NCI screen, SF-539 (CNS Cancer)
Method: as §2

O=C(Nc1cc(O)ccc1CCCl)c1cc2cc(NC(=O)c3cc4ccccc4o3)ccc2[nH]1 [Compound 1, 4-(2-Chloroethyl)-3-[5-(5-benzofuran-2-carboxamido)indole-2-carboxamido]phenol]
Percent Growth (LOX IMVI): 106% | GI50 (LOX IMVI; LOX IMVI): 2430 nM | TGI (LOX IMVI; LOX IMVI): 6.93E−06 Molar | Percent Growth (LOX IMVI; LOX IMVI, Log10 Concentration −4.0): −70% | Percent Growth (LOX IMVI; LOX IMVI, Log10 Concentration −5.0): −17% | Percent Growth (LOX IMVI; LOX IMVI, Log10 Concentration −6.0): 92% | Percent Growth (LOX IMVI; LOX IMVI, Log10 Concentration −7.0): 101% | Percent Growth (BT-549): 110% | GI50 (BT-549; BT-549): 3600 nM | TGI (BT-549; BT-549): 2.05E−05 Molar | Percent Growth (BT-549; BT-549, Log10 Concentration −4.0): −20% | Percent Growth (BT-549; BT-549, Log10 Concentration −5.0): 9% | Percent Growth (BT-549; BT-549, Log10 Concentration −6.0): 101% | Percent Growth (BT-549; BT-549, Log10 Concentration −7.0): 103% | Percent Growth (SF-268): 68% and 70% and 88% | GI50 (SF-268; SF-268): 13400 nM | TGI (SF-268; SF-268): 2.78E−05 Molar | Percent Growth (SF-268; SF-268, Log10 Concentration −4.0): −88% | Percent Growth (SF-268; SF-268, Log10 Concentration −7.0): 88% | Percent Growth (U251): 77% | GI50 (U251; U251): 2410 nM | TGI (U251; U251): 1.23E−05 Molar | Percent Growth (U251; U251, Log10 Concentration −4.0): −71% | Percent Growth (U251; U251, Log10 Concentration −5.0): 7% | Percent Growth (U251; U251, Log10 Concentration −7.0): 101% | Percent Growth (SNB-75): 65% and 56% and 93% | GI50 (SNB-75; SNB-75): 18600 nM | TGI (SNB-75; SNB-75): 3.32E−05 Molar | Percent Growth (SNB-75; SNB-75, Log10 Concentration −4.0): −96% | Percent Growth (OVCAR-8): −61% | GI50 (OVCAR-8; OVCAR-8): 1320 nM | TGI (OVCAR-8; OVCAR-8): 3.28E−06 Molar | Percent Growth (OVCAR-8; OVCAR-8, Log10 Concentration −4.0): −63% | Percent Growth (OVCAR-8; OVCAR-8, Log10 Concentration −6.0): 65% | Percent Growth (OVCAR-8; OVCAR-8, Log10 Concentration −7.0): 94% | Percent Growth (OVCAR-8; OVCAR-8, Log10 Concentration −8.0): 94% | GI50 (NCI-H522): 933 nM | TGI (NCI-H522): 3.00E−06 Molar | Percent Growth (NCI-H522; Log10 Concentration −4.0): −80% | Percent Growth (NCI-H522; Log10 Concentration −7.0): 99% | Percent Growth (NCI-H522; Log10 Concentration −8.0): 98% | GI50 (MOLT-4): 1140 nM | Percent Growth (MOLT-4; Log10 Concentration −4.0): 4% | Percent Growth (IGROV1): −65% | GI50 (IGROV1; IGROV1): 1500 nM | TGI (IGROV1; IGROV1): 3.41E−06 Molar | Percent Growth (IGROV1; IGROV1, Log10 Concentration −4.0): −94% | Percent Growth (IGROV1; IGROV1, Log10 Concentration −6.0): 75% | Percent Growth (IGROV1; IGROV1, Log10 Concentration −7.0): 98% | Percent Growth (IGROV1; IGROV1, Log10 Concentration −8.0): 93% | GI50 (HOP-62): 453 nM | TGI (HOP-62): 3.07E−06 Molar | Percent Growth (HOP-62; Log10 Concentration −4.0): −98% | Percent Growth (TK-10): −31% | GI50 (TK-10; TK-10): 2450 nM | TGI (TK-10; TK-10): 5.85E−06 Molar | Percent Growth (TK-10; TK-10, Log10 Concentration −4.0): −95% | Percent Growth (TK-10; TK-10, Log10 Concentration −6.0): 101% | Percent Growth (TK-10; TK-10, Log10 Concentration −7.0): 98% | Percent Growth (TK-10; TK-10, Log10 Concentration −8.0): 104% | Percent Growth (HCT-116): 81% and 99% | GI50 (HCT-116; HCT-116): 1940 nM | TGI (HCT-116; HCT-116): 5.73E−06 Molar | Percent Growth (HCT-116; HCT-116, Log10 Concentration −4.0): −89% | Percent Growth (HCT-116; HCT-116, Log10 Concentration −5.0): −26% | Percent Growth (HCT-116; HCT-116, Log10 Concentration −7.0): 95% | GI50 (KM12): 18800 nM | Percent Growth (KM12): 93% | TGI (KM12): 3.50E−05 Molar | GI50 (SR): 852 nM | TGI (SR): 8.12E−06 Molar | Percent Growth (SR; Log10 Concentration −4.0): −7% | GI50 (MCF7): 1030 nM | TGI (MCF7): 2.27E−06 Molar | Percent Growth (MCF7; Log10 Concentration −4.0): −100% | Percent Growth (MCF7; Log10 Concentration −8.0): 111% | GI50 (NCI-H226): 4090 nM | TGI (NCI-H226): 1.62E−05 Molar | Percent Growth (NCI-H226; Log10 Concentration −4.0): −90% | Percent Growth (NCI-H226; Log10 Concentration −8.0): 100% | GI50 (A549/ATCC): 1980 nM | TGI (A549/ATCC): 6.58E−06 Molar | Percent Growth (A549/ATCC; Log10 Concentration −4.0): −100% | Percent Growth (A549/ATCC; Log10 Concentration −6.0): 78% | Percent Growth (A549/ATCC; Log10 Concentration −8.0): 96% | GI50 (UACC-257): 1880 nM | TGI (UACC-257): 3.40E−06 Molar | Percent Growth (UACC-257; Log10 Concentration −4.0): −97% | Percent Growth (UACC-257; Log10 Concentration −7.0): 104% | Percent Growth (UACC-257; Log10 Concentration −8.0): 102% | GI50 (SW-620): 2010 nM | TGI (SW-620): 8.19E−06 Molar | Percent Growth (SW-620; Log10 Concentration −4.0): −66% | Percent Growth (SW-620; Log10 Concentration −8.0): 96% | GI50 (MCF7/ADR-RES): 1650 nM | TGI (MCF7/ADR-RES): 3.79E−06 Molar | Percent Growth (MCF7/ADR-RES; Log10 Concentration −4.0): −55% | Percent Growth (MCF7/ADR-RES; Log10 Concentration −5.0): −58% | Percent Growth (MCF7/ADR-RES; Log10 Concentration −6.0): 80% | Percent Growth (MCF7/ADR-RES; Log10 Concentration −7.0): 97% | Percent Growth (MCF7/ADR-RES; Log10 Concentration −8.0): 93% | Percent Growth (SF-295): 92% and 94% | GI50 (SF-295; SF-295): 2320 nM | TGI (SF-295; SF-295): 6.46E−06 Molar | Percent Growth (SF-295; SF-295, Log10 Concentration −4.0): −96% | Percent Growth (SF-295; SF-295, Log10 Concentration −5.0): −21% | Percent Growth (SF-295; SF-295, Log10 Concentration −6.0): 91% | GI50 (SF-539): 1920 nM | TGI (SF-539): 4.16E−06 Molar | Percent Growth (SF-539; Log10 Concentration −4.0): −100% | Percent Growth (SF-539; Log10 Concentration −8.0): 92%
